# Data as given in patent US20010044447A1 (priority 1999, published 2001).
# Key:
# [1] = system: motoneurons (trophic activity produced by spinal astrocytes); type: cell-based, Wistar rats; settings: each product 0.1 μM; astrocyte monolayers exposed 24 hours, conditioned medium taken up 24 hours later; percentage of the number of motoneurons in cultures maintained with BDNF; vehicle alone 44 ± 1.41
# Procedure: The motoneurons are plated, at a density of 2500 cells per 35 mm plate, on culture plates previously coated with laminin/ornithine according to the method of A. G. ESTEVEZ et al., J. Neurosci., 18 (3), 923-931 (1998). The cultures are then maintained in L15 medium (GIBCO BRL) containing sodium bicarbonate (22 mM), conalbumin (0.1 mg/ml), putrescine (0.1 mM), insulin (5 μg/ml), sodium selenite (31 nM), glucose (20 mM), progesterone (21 nM), penicillin (100 IU/ml) and streptomycin (100 μg/ml).
# The motoneurons thus obtained are composed of large (25-30 μM) and homogeneous neurones with long branched neurites. More than 70% of the cells are immunoreactive for the p75 neurotrophin receptor and the markers Islet 1/2 for the spinal motoneurons. About 70% of the motoneurons die by apoptosis 24 hours after the plating if the culture is carried out in the absence of a trophic factor. […]
# The monolayers of astrocytes show a purity of more than 98% determined by immunoreactivity for the glial fibrillary acidic protein (GFAP). […]
# The number of motoneurons is evaluated by counting the labelled cells in a surface area of 0.4-1 cm^2 under a microscope with a 200 times magnification.
# [2] = system: motoneurons (trophic activity produced by spinal astrocytes); settings: H. PELUFFO et al., Neuroscience letters, 228, 207-211 (1997); cited from earlier work
smiles,measurement,setting,value
"CO[C@]12C[C@@H](CO)CN(C)[C@@H]1Cc1cn(C)c3cccc2c13 [lumilysergol, 1,6-dimethyl-8β-hydroxymethyl-10α-methoxyergoline]",Motoneuronal survival in %,[1],57.4 ± 3.53%
"CO[C@]12C[C@@H](COC(=O)c3cncc(Br)c3)CN(C)[C@@H]1Cc1cn(C)c3cccc2c13 [nicergoline, (8 p)-10-methoxy-1,6-dimethylergoline-8-methanol-5-bromonicotinate]",Motoneuronal survival in %,[1],44.5 ± 3.53%
Nc1nc2ccc(OC(F)(F)F)cc2s1 [riluzole],"Production, by the astrocytes, of trophic activity for the motoneurons",[2],stimulated
